{
  "source": "patent US20080032918A1",
  "about": "“Mast cell-derived renin” (Cornell Research Foundation, Inc., priority 2003, published 2008)",
  "key": {"guinea-pig hearts": {"system": "guinea-pig hearts", "test": "ischemia-reperfusion in guinea pig hearts ex vivo (Langendorff)", "conditions": "20-min global ischemia, 45-min reperfusion, lodoxamide 10 μM; for ventricular fibrillation during reperfusion: BILA2157 100 nM; for renin overflow into coronary effluent on reperfusion: BILA 2157 100 nM", "method": "Ischemia-reperfusion in guinea pig hearts ex vivo: Guinea-pig hearts will be perfused for 30 min prior to ischemia. Inamura et al., Circ. Res. 78: 475-481 (1996). Normothermic 20-min global ischemia will be induced by complete cessation of coronary perfusion, followed by 45-min reperfusion. Coronary effluent will be assayed for renin activity and NE.\nGuinea-pig hearts were perfused ex vivo at constant pressure in a Langendorff apparatus and subjected to 20-min. stop-flow global ischemia, followed by 45-min. reperfusion (Hatta, E., R. Maruyama, S. J. Marshall, M. Imamura, and R. Levi. Bradykinin promotes ischemic norepinephrine release in guinea pig and human hearts. J. Pharmacol. Exp. Ther. 288: 919-927 (1999)). Surface ECG and coronary flow were continuously monitored; the coronary effluent was assayed for renin activity (i.e., ANG I generated as described herein). There was no detectable renin in the coronary effluent prior to ischemia. With reperfusion, there was significant renin overflow into the coronary effluent accompanied by ventricular fibrillation (VF) (FIG. 12).\nTraces in the left panels were recorded at the end of the equilibration period prior to ischemia, showing normal sinus rhythm."}, "cardiac mast cells": {"system": "cardiac mast cells", "test": "renin in coronary effluent of normoxic Langendorff-perfused hearts challenged with 48/80", "design": "species or system guinea pig", "conditions": "lodoxamide 10 μM or BILA 2157 100 nM prior to 48/80", "method": "Renin was measured in the coronary effluent of normoxic Langendorff-perfused guinea-pig hearts, ex vivo. […] When hearts were perfused with the mast-cell stabilizer lodoxamide (FIG. 9B) or the renin inhibitor BILA2157 prior to 48/80 challenge (FIGS. 9A and B), renin overflow was abolished."}, "[1]": {"system": "isolated normoxic guinea pig hearts", "test": "chronotropic response and norepinephrine overflow in normoxic isolated hearts challenged with 48/80", "conditions": "BILA 2157 100 nM, lodoxamide 30 μM", "source_text": "These findings indicate that cardiac mast cells are capable of releasing active renin, which then leads to local formation of ANG II causing norepinephrine exocytosis."}, "renin": {"target": "T1, renin (Homo sapiens, UniProt P00797)", "T1 sequence (P00797 67-406)": "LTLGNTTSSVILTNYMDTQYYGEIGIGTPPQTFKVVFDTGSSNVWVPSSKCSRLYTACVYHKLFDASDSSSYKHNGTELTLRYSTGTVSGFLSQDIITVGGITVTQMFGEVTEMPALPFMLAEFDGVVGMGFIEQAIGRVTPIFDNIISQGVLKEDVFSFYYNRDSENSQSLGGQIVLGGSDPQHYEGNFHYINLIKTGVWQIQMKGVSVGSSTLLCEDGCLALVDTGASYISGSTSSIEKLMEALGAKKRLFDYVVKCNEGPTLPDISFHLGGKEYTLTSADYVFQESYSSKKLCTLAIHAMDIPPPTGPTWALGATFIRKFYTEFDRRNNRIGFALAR", "conditions": "specific renin inhibitor; cited from earlier work"}, "[2]": {"system": "cardiac sympathetic nerve endings", "test": "norepinephrine release from isolated cardiac sympathetic nerve endings incubated with angiotensinogen", "type": "cell-based, guinea pig", "conditions": "nerve endings incubated with BILA2157 10 nM, enalaprilat 30 nM or EXP 3174 10 nM", "source_text": "Preparation ofguinea-pig sympathetic nerve endings: Cardiac sympathetic nerve endings were isolated from guinea-pig hearts as previously described (Seyedi et al., J Pharmacol Exp Ther 290: 656-663, 1999; Seyedi et al., Circ. Res. 81: 774-784, 1997). Spontaneously beating hearts were isolated as previously described by the inventors (Hatta et al., J. Pharmacol. Exp. Ther. 288: 919-927, 1999; Park et al., Circ. Res. 71: 992-1001, 1992). Briefly, male Hartley guinea pigs were anesthetized with CO2 vapor and then exsanguinated. Hearts were perfused through the aorta for 15 min at constant pressure with Ringer's solution at 37° C. (Park et al., Circ. Res. 71: 992-1001, 1992) to exclude blood from the coronary circulation. Hearts were minced in 0.32 M sucrose containing 1 mM EGTA. The minced tissue was then digested with 75 mg collagenase per 10 ml HBS per gm for 1 hr at 37° C. After low speed centrifugation the resulting pellet were suspended in 10 volumes of 0.32 M sucrose and homogenized with a Teflon/glass homogenizer. The homogenate was centrifuged at 650g for 10 min, the pellet was re-homogenized and the homogenate was centrifuged again. The pellet containing cellular debris was discarded, the supernatants from the last two spins were combined, the pooled supernatant was equally subdivided into 4 to 8 tubes and re-centrifuged for 20 min at 20,000g at 4° C. This pellet contains cardiac sympathetic nerve endings. The pellet was resuspended either in HEPES-buffered saline (HBS; 500 μl, normoxic conditions) or in glucose-free HBS, which contained the reducing agent sodium dithionite (500 μl, ischemic conditions), and incubated in the absence or presence of angiotensinogen (1 hr) or other agents for 20 min at 37° C. prior to ischemia (see below). Each suspension was used only once as an independent sample.\nNorepinephrine assay: Coronary effluent and synaptosome supernatant will be assayed for NE by HPLC with electrochemical detection (ESA). […]"}, "mast-cell-derived renin": {"target": "T2, mast-cell-derived renin (Homo sapiens, UniProt P00797)", "T2 construct": "endogenous in cells; host or cells: HMC-1 human mastocytoma cell line, degranulated with compound 48/80", "T2 sequence (P00797 67-406)": "T1 sequence (P00797 67-406)", "test": "renin activity (ANG I formed, RIA) of HMC-1 cell releasate incubated with human angiotensinogen", "type": "biochemical", "conditions": "BILA2157 100 nM", "method": "Renin activity: Pooled confluent flasks of HMC-1 cells, or individual wells of HMC-1 cells, were pelleted and resuspended in HEPES buffer (pH 5.7, 1 mM EDTA) containing the mast-cell degranulating agent compound 48/80 (100 μg/ml or 20 μg/ml; Sigma). After 30 min, cells were spun down and the renin-containing supernatant was incubated with increasing concentrations of human angiotensinogen (Sigma). Renin activity (ANG I formed) was then determined using a GammaCoat Plasma Renin Activity 1251 Radioimmunoassay kit (DiaSorin, Mass.). The selective renin inhibitor BILA2157 was from Boehringer Ingelheim.\nThe cell releasate was incubated with increasing concentrations of angiotensinogen and then assayed for ANG I formed (i.e. renin activity) by RIA. A concentration-response curve for ANG I formation as a function of angiotensinogen concentration was generated on the HMC-1 releasate. The amount of ANG I formed increased with angiotensinogen concentration. […]\nFIG. 4F illustrates that mast-cell-derived renin can be synthesized in mast cells. Releasates were analyzed from the same population of HMC-1 exposed to compound 48/80 (20 μg/ml) 48 hours apart, and analyzed for BILA2157-sensitive renin activity."}},
  "note": "“Also recorded” adds a separate entry of the source.",
  "data": [
    {"smiles": "CC(C)C[C@H](O)[C@H](O)[C@H](CC1CCCCC1)NC(=O)[C@@H](CC(=O)N(CC(=O)N(C)CCc1ccccn1)CC1CCCCC1)Cc1csc(N)n1", "note": "[BILA2157]", "values": [
      {"measurement": "ventricular fibrillation during reperfusion", "setting": "guinea-pig hearts", "result": "no ventricular fibrillation; also recorded: ventricular fibrillation did not occur"},
      {"measurement": "ventricular fibrillation during reperfusion", "setting": "guinea-pig hearts; listed as BILA 2157", "result": "prevent ventricular fibrillation; also recorded: essentially no ventricular fibrillation"},
      {"measurement": "renin overflow into coronary effluent on reperfusion", "setting": "guinea-pig hearts", "result": "abrogated"},
      {"measurement": "renin overflow into coronary effluent on reperfusion", "setting": "guinea-pig hearts; listed as BILA 2157", "result": "prevented renin release"},
      {"measurement": "renin overflow into coronary effluent after 48/80 challenge", "setting": "cardiac mast cells", "result": "abolished"},
      {"measurement": "renin overflow into coronary effluent after 48/80 challenge", "setting": "cardiac mast cells; listed as BILA 2157", "result": "markedly diminished"},
      {"measurement": "chronotropic response to 48/80", "setting": "[1]", "result": "markedly abbreviated"},
      {"measurement": "chronotropic response to 48/80", "setting": "[1]; listed as BILA 2157", "result": "diminishes the chronotropic response"},
      {"measurement": "IC50", "setting": "renin", "result": 1, "unit": "nM"},
      {"measurement": "effect on 48/80 potentiation of norepinephrine release", "setting": "[2]", "result": "abolished"},
      {"measurement": "share of ANG I activity due to BILA2157-sensitive renin", "setting": "mast-cell-derived renin; 240 nM angiotensinogen, initially and 48 hours after degranulation with 48/80", "result": "about 70%"},
      {"measurement": "share of total ANG I formed that originates from renin (BILA2157-sensitive)", "setting": "mast-cell-derived renin; increasing angiotensinogen concentrations", "result": "~70", "unit": "%"}
    ]}
  ]
}
